Test results reported in patent publication US20160354300A1, “Low Viscosity Hair Care Composition” (The Procter & Gamble Company, priority 2015, published 2016).
Structures can show the parent of a compound that is named as a salt.

Key:
[1] = Kinematic viscosity at 40 C of surfactant base formulation with added agent (Cannon viscometer); assay type: physicochemical; conditions: for Lowest viscosity achieved (cSt): Table 1, base formulation 24% sodium undecyl sulfate, 6% lauramidopropyl betaine, 1.6% perfume, agent at 2%, 4%, 6%, 8%, 40° C.; for Kinematic viscosity at 40 C. [cSt], 2% oil: agent added at 2% to base formulation; for Kinematic viscosity at 40 C. [cSt], 4% oil: agent added at 4% to base formulation; for Kinematic viscosity at 40 C. [cSt], 6% oil: agent added at 6% to base formulation; for Kinematic viscosity at 40 C. [cSt], 8% oil: agent added at 8% to base formulation
Excerpt: Referring to Tables 1 and 2, the base formulations were made by mixing 1.6% perfume, 24% sodium undecyl sulfate (CAS#1072-24-8) active, 6% lauramidopropyl betaine (CAS#4292-10-8) active and 60.4% deionized water which leaves 8% unfilled for the addition of a viscosity reducing agent (the balance being filled in by distilled water). For all compositions, the surfactant, water and additives including viscosity reducing agents were expected to be in a single phase.
The agents from Tables 1 and 2 were added to the base formulation at a percentage of 2%, 4%, 6%, and 8% into the above surfactant solution. The subsequent formulations were vortexed and put into oven at 60° C. overnight to form homogeneous solution. The viscosities of the formulations were measured with calibrated viscometers (Size 200/350/450) from Cannon Instrument Company (2139 High Tech Road, State College, Pa., USA, 16803).
After the equilibration, the formulations were drawn to reach the starting mark with a rubber suction bulb and the flow time between the starting mark and end mark was recorded for calculation. Each formulation was measured three times to calculate average and standard deviation. Between samples, viscometer was cleaned with water and acetone to rinse off residual.
Viscosity values were calculated based on the equation:
Viscosity (mm^2/s·(cSt))=Time (s)*Constant (mm^2/s^2·(cSt/s))
The time in the above equation is the flow time recorded in the experiment and the constant numbers for each calibrated viscometer were obtained from the manuals. […]
The viscosities of the formulations are measured with calibrated viscometers (Size 200/350/450) from Cannon Instrument Company (2139 High Tech Road, State College, Pa., USA, 16803). Prior to the measurement, the formulations are equilibrated in the viscometer reservoir for 30 min at 40° C. in water bath to ensure a homogeneous temperature is reached in the system. […]

[2] = Visual cloudiness of surfactant formulation with added agent after 20:1 dilution with water; assay type: physicochemical; design: key: Samples that appeared cloudy (turbid) within less than a day were noted as cloudy (“Yes”); Samples that did not appear cloudy (turbid) within less than a day were noted as not cloudy (“No”); conditions: 0.5 g formula, 10 ml deionized water; for Cloudy at 1:20 dilution at 2%, 4%, and/or 6%: Table 3, visual, within less than a day; for Added at 2%: cloudy at 20:1 dilution: agent at 2%; for Added at 4%: cloudy at 20:1 dilution: agent at 4%; for Added at 6%: cloudy at 20:1 dilution: agent at 6%; for Added at 8%: cloudy at 20:1 dilution: agent at 8%
Experimental: Now referring to Tables 3 and 4, the following surfactant formulations were made by mixing 1.6% perfume, 24% sodium undecyl sulfate (CAS#1072-24-8) active, 6% lauramidopropyl betaine (CAS#4292-10-8) active, and 60.4% deionized water which leaves 8% unfilled for the addition of the listed agents (the balance being filled in by distilled water). The agents were added at a percentage of 2%, 4%, 6%, and 8% into the above surfactant formulation. The resulting formulations were vortexed and put into oven at 60° C. overnight to form homogeneous solution. For all formulations, the surfactant, water and additives, including the added agents, were expected to be in a single phase.
The resulting formulations were weighed out in a scintillation vial combined with 10 ml of water to achieve a representative dilution during use: 0.5 g formula, 10 ml deionized water for 20:1 dilution. After the combination of the ingredients, the vial was vigorously shaken by hand and the samples were visually inspected by looking at the solution against a dark background. Samples that appeared cloudy (turbid) within less than a day were noted as cloudy (“Yes”). […] Samples that appeared cloudy at the 20:1 dilution for any of the 2%, 4% or 6% concentration of oil may be most desirable by requiring a limited amount of the agent to be added, limiting cost and trade-offs associated with higher levels.
The appearance of a cloudy formulation at 1:20 dilution at 2%, 4%, and/or 6% can signal improved deposition of surfactant soluble active agents during consumer use.

| SMILES | Lowest viscosity achieved (cSt) [1] [cSt] | Kinematic viscosity at 40 C. [cSt], 2% oil [1] [cSt] | Kinematic viscosity at 40 C. [cSt], 4% oil [1] [cSt] | Kinematic viscosity at 40 C. [cSt], 6% oil [1] [cSt] | Kinematic viscosity at 40 C. [cSt], 8% oil [1] [cSt] | Cloudy at 1:20 dilution at 2%, 4%, and/or 6% [2] | Added at 2%: cloudy at 20:1 dilution [2] | Added at 4%: cloudy at 20:1 dilution [2] | Added at 6%: cloudy at 20:1 dilution [2] | Added at 8%: cloudy at 20:1 dilution [2] |
| --- | --- | --- | --- | --- | --- | --- | --- | --- | --- | --- |
| CC(CC=O)CCCC(C)(C)O (stereo not drawn) [Hydroxycitronellal] | 34 | 310.8 | 145.4 | 65.9 | 34.1 |  |  |  |  |  |
| CCCCCC(=O)OCC(C)C [Isobutyl Hexanoate] | 109 | 390.0 | 177.9 | 140.9 | 109.4 | No | No | No | No | Yes |
| C=C(C)[C@H]1CC=C(C)CC1 [Dipentene] | 35 | 307.6 | 74.5 | 35.1 | 42.6 | Yes | No | No | Yes | Yes |
| CCO [Ethanol] | 29 | 205.6 | 111.0 | 50.8 | 29.2 |  |  |  |  |  |
| CCC(=O)O[C@@H]1C[C@H]2CC[C@]1(C)C2(C)C (racemic) [Iso Bornyl Propionate] | 463 | 463.1 |  |  |  |  |  |  |  |  |
| CCCCCCCCCCCCCCCC [Hexadecane] | 18 | 21.1 | 18.1 |  |  | No | No | No |  |  |
| CCCCCC1(C)CCC(C)(C)C1=O (stereo not drawn) [Veloutone] | 47 | 260.2 | 129.1 | 56.3 | 47.3 | Yes | No | No | Yes | Yes |
| CCCCCCCC(OC)OC [1,1-Dimethoxyoctane] | 308 | 500.7 | 308.1 |  |  |  |  |  |  |  |
| C=C(C)[C@H]1CC=C(C)CC1 [Limonene] | 86 | 366.5 | 166.8 | 97.5 | 86.4 |  |  |  |  |  |
| CC(=O)CCc1ccc(O)cc1 [Raspberry Ketone] | 33 | 151.9 | 107.4 | 54.0 | 33.0 |  |  |  |  |  |
| CCCCCCCCCCCCCC(=O)OC(C)C [Iso Propyl Myristate] | 30 | 234.2 | 53.7 | 30.4 | 45.0 | Yes | No | No | Yes | Yes |
| CCCCOC(=O)c1ccccc1O [Butyl Salicylate] | 368 | 367.9 |  |  |  | No | No |  |  |  |
| CCC(CC(C)CC)=NO (stereo not drawn) [5-Methyl-3-Heptanone Oxime] | 246 | 246.3 |  |  |  |  |  |  |  |  |
| CCC(=O)OC1CC2CC1C1CC=CC21 (stereo not drawn) [Cyclaprop] | 404 | 404.2 |  |  |  | No | No | No |  |  |
| CCOC(=O)CC(O)(CC(=O)OCC)C(=O)OCC [Triethyl Citrate] | 41 | 269.4 | 136.6 | 66.6 | 40.5 |  |  |  |  |  |
| C=CC(C)(CCC=C(C)C)OC(=O)C(C)C (stereo not drawn) [Linalyl Iso Butyrate] | 38 | 223.4 | 73.0 | 37.7 | 39.9 | Yes | No | No | Yes | Yes |
| CC(C)CC=C(C=O)C(C)C [2-Isopropyl-5-methyl-2-hexenal] | 332 | 332.3 |  |  |  | No | No | No |  |  |
| COC(C)(C)C1CC=C(C)CC1 (stereo not drawn) [Orange Flower Ether] | 419 | 552.2 | 418.8 |  |  |  |  |  |  |  |
| CC12CCC(CC1=O)C2(C)C (stereo not drawn) [Camphor Gum] | 127 | 365.8 | 127.2 |  |  |  |  |  |  |  |
